Data reported in patent US8084471B2, “Proteomimetic compounds as inhibitors of the interaction of nuclear receptor with coactivator peptides” (Yale University, priority 2006, dated 2011).
Ends that are not written are not given here.

Key:
ERα [1] = target: T1, ERα (Homo sapiens, UniProt P03372); assay: Fluorescence polarization assay: displacement of rhodamine-labeled peptide D22 from estradiol-activated ER; format: binding; parameters: purchased Invitrogen; settings: for Ki: ERα 75 nM, 17β-estradiol 2 μM, D22 1 nM; for affinity (in words): FP assay; for fluorescence polarization titration curve: FIG. 2
T1 sequence (P03372 1-595): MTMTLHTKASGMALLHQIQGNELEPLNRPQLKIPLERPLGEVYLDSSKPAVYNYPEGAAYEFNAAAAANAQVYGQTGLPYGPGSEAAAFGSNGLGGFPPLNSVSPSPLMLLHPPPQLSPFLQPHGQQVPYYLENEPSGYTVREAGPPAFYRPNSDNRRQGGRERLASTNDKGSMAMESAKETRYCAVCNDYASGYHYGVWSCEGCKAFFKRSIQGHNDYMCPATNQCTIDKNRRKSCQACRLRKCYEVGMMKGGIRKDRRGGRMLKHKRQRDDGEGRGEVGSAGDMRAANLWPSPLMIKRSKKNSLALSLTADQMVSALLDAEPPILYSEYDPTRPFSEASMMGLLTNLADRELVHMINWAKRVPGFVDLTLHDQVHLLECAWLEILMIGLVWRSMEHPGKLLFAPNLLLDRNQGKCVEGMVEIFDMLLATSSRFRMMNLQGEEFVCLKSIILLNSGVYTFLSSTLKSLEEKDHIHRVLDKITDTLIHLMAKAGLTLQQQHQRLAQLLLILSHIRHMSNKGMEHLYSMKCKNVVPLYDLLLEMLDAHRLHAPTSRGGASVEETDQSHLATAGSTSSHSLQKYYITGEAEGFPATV

ERα [2] = target: T1, ERα; parameters: purchased Invitrogen; settings: used to obtain Ki from IC50; D22 at 1 nM; read-out: Kd of the fluorescent peptide; cited from earlier work
ERα [3] = target: T1, ERα; assay: Competitive radioligand assay with [3H]estradiol for the estradiol binding site; parameters: purchased MDS Pharma Services (contract assay); host or cells: Sf9 insect cells; settings: ERα from human recombinant insect Sf9 cells
Experimental: Inhibition of coactivator binding by a small molecule involves either direct competition with the helical peptide for the ER surface or binding of the small molecule to the ligand binding site as an antagonist, deactivating the ER and preventing coactivator recruitment. To rule out the latter mechanism, a competitive radioligand assay with [^3H]estradiol was carried out to specifically measure the affinity of 3 for the estradiol binding site. According to the radioligand assay, 3 binds to this site with an affinity <0.001% the affinity of 17β-estradiol. […] From this it was concluded that the helix mimetics prevent the coactivator association through direct competition for its binding site on the ER surface. […]
Procedure: Ammonium sulfate precipitates of the hER were dissolved in TDEE buffer containing 100 mM KCl, 0.5 mM leupeptin, and 10% glycerol. […] The hER was incubated with a varied concentration of [^3H]estradiol, and the nonspecific binding was measured by a parallel incubation with [^3H]estradiol plus a 300-fold excess of estradiol for 15 h at 4° C. At the completion of the incubation, 50 μL of each mixture was removed and the total [^3H]estradiol concentration determined. […] The hydroxylapatite pellets were suspended in 1 mL of ethanol and counted in 5 mL of scintillation fluid, and the receptor-bound [^3H]estradiol was measured. […]

## CLTERHKILHRLLQE [SRC-1 NR II, CLTERHKILHRLLQE, reference compound]
ERα [1]; standard deviation in brackets
  Ki: 0.95 µM
ERα [1]; Table 1 left column
  Ki: 1 µM

## CC(C)Cc1cc(O)c(=O)n(CCc2ccc3ccccc3c2)c1-c1ccnc(Cc2ccccc2)c1 [Compound 7, 6-(2-Benzyl-4-pyridyl)-3-hydroxy-5-isobutyl-1-(2-(2-naphthyl)ethyl)-1H-pyridin-2-one]
ERα [1]; standard deviation in brackets
  Ki: 4.2 µM

## CC(C)Cc1cc(-c2c(CC(C)C)cc(O)c(=O)n2CCC(C)(C)C)ccn1 [Compound 4, 3-hydroxy-5-isobutyl-6-(2-isobutyl-4-pyridyl)-1-(3,3-dimethylbutyl)1H-pyridin-2-one]
ERα [1]; standard deviation in brackets
  Ki: > 50 µM
ERα [1]
  affinity (in words): weak affinity

## Rho-LPYEGSLLLKLLRAPVEEV-COOH [Compound D22, rhodamine-labeled peptide which contains a single LXXLL motif, FP probe]
ERα [2]
  Kd: 0.031 µM

## CC(C)Cc1cc(-c2c(CC(C)C)cc(O)c(=O)n2CCc2ccccc2)ccn1 [Compound 3, 3-Hydroxy-5-isobutyl-6-(2-isobutyl-4-pyridyl)-1-(2-phenylethyl)-1H-pyridin-2-one]
ERα [1]; standard deviation in brackets
  Ki: 9.4 µM
ERα [3]
  affinity for the estradiol binding site relative to 17β-estradiol: < 0.001%

## CC(C)Cc1cc(O)c(=O)n(CCC(C)(C)C)c1-c1ccnc(C(C)(C)C)c1 [Compound 5, 6-(2-tert-Butyl-4-pyridyl)-3-hydroxy-5-isobutyl-1-(3,3-dimethylbutyl)1H-pyridin-2-one]
ERα [1]; standard deviation in brackets
  Ki: > 50 µM
ERα [1]
  fluorescence polarization titration curve: about 0.95
  affinity (in words): weak affinity

## CC(C)Cc1cc(O)c(=O)n(CCc2ccccc2)c1-c1ccnc(Cc2ccccc2)c1 [Compound 6, 6-(2-Benzyl-4-pyridyl)-3-hydroxy-5-isobutyl-1-(2-phenylethyl)-1H-pyridin-2-one]
ERα [1]; standard deviation in brackets
  Ki: 6.5 µM

## CC(C)CCn1c(-c2ccnc(CC(C)C)c2)c(CC(C)C)cc(O)c1=O [Compound 2, 3-Hydroxy-5-isobutyl-6-(2-isobutyl-4-pyridyl)-1-(3-methylbutyl)-1H-pyridin-2-one]
ERα [1]; standard deviation in brackets
  Ki: 16 µM

## CC(C)Cc1cc(-c2c(CC(C)C)cc(O)c(=O)n2CC(C)C)ccn1 [Compound 1, 3-Hydroxy-1,5-diisobutyl-6-(2-isobutyl-4-pyridyl)-1H-pyridin-2-one]
ERα [1]
  fluorescence polarization titration curve: slopes rapidly downward
ERα [1]; Table 1 left column
  Ki: 34 µM
ERα [1]; relative to compound 2
  decrease in affinity: 2 fold
